pEC50: −log10 of the molar value.
These compounds were tested against T1, GPR119 receptor (UniProt Q8TDV5, S309L, species not given) (assay: GPR119 signaling, cyclic AMP (cAMP) homogenous time resolved fluorescence (HTRF) assay). Conditions: CHO cells with Gα15 and murine GPR119, or HEK293 Flp-In cells with human GPR119 S309L; table does not say which; read-out: Activity: inflection points, denoted as EC50 values (agonist activation of GPR119, cAMP).
T1 sequence (Q8TDV5 1-335 S309L): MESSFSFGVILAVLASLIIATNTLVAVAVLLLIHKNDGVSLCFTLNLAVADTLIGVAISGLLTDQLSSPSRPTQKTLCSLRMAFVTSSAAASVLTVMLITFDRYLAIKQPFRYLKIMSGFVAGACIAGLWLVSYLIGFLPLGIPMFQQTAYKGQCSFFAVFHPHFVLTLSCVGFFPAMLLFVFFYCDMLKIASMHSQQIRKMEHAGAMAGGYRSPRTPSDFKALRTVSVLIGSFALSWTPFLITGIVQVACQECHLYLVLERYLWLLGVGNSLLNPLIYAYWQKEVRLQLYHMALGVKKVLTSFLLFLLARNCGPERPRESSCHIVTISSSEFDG
Format: cell-based
Excerpt: Measurement of GPR119 Signaling Using a Cyclic AMP (cAMP) Homogenous Time Resolved Fluorescence (HTRF) Assay
Chinese hamster ovary (CHO) cell lines stably transfected with the permissive guanine nucleotide binding protein alpha 15 (Gα15) and […] GPR119 were maintained in DMEM media containing FBS, penicillin-streptomycin, puromycin, and G418 (geneticin). Alternatively, human embryonic kidney (HEK)293 Flp-In cells (Invitrogen, Carlsbad, Calif.) were stably transfected with a human SNP variant (S309L) of GPR119 and maintained in DMEM media containing FBS, penicillin-streptomycin, and hygromycin. Agonist activation of the GPR119 receptor was measured in receptor transfected cells described above, treated with compounds of this invention, using a commercial homogenous time resolved fluorescence (HTRF) kit for measurement of cAMP (CisBio, Bedford, Mass.). The assay was performed in 96-well half-volume plates (murine) or 384-well plates (human) following the manufacturers instructions. Briefly, suspended cells were incubated with a dose titration of test compound at room temperature for 60 min, lysed, and incubated with HTRF reagents for an additional 60 min. The plate was read using an Envision multilabel reader (Perkin Elmer) adjusted to read time resolved fluorescence and the cAMP concentrations were extrapolated from a cAMP calibration curve. […] The concentration of test compound required to stimulate a half-maximal response (EC50), and efficacy as compared to an internal agonist control, was determined from a sigmoidal 4-parameter curve fit of the resulting plot of normalized activity versus compound concentration.

Row | pEC50 | Compound
1 | 6.70 to 7.30 | Clc1cnc(N2CCC(C3CC3CCOc3ccc(-c4cnoc4)cc3)CC2)nc1 (racemic) [Ex 20, rac cis-5-chloro-2-(4-{2-[2-(4-isoxazol-4-ylphenoxy)ethyl]cyclopropyl)piperidin-1-yl)pyrimidine]
2 | 7.30 to 8.00 | Clc1cnc(N2CCC(C3CC3CCOc3ccc(-c4ccno4)cc3)CC2)nc1 (racemic) [Ex 21, rac cis-5-chloro-2-(4-{2-[2-(4-isoxazol-5-ylphenoxy)ethyl]cyclopropyl}piperidin-1-yl)pyrimidine]
3 | 7.30 to 8.00 | Clc1cnc(N2CCC(C3CC3CCOc3ccc(-c4ccn[nH]4)cc3)CC2)nc1 (racemic) [Ex 22, rac cis-5-chloro-2-[4-(2-{2-[4-(1H-pyrazol-3-yl)phenoxy]ethy]}cyclopropyl)piperidin-1-yl]pyrimidine]
4 | 6.70 to 7.30 | Clc1cnc(N2CCC(C3CC3CCOc3ccc(-c4cn[nH]c4)cc3)CC2)nc1 (racemic) [Ex 23, rac cis-5-chloro-2-[4-(2-{2-[4-(1H-pyrazol-4-yl)phenoxy]ethyl}cyclopropyl)piperidin-1-yl]pyrimidine]
5 | 6.70 to 7.30 | Clc1cnc(N2CCC(C3CC3CCOc3ccc(-n4cccn4)cc3)CC2)nc1 (racemic) [Ex 24, rac cis-5-chloro-2-[4-(2-{2-[4-(1H-pyrazol-1-yl)phenoxy]ethyl}cyclopropyl)piperidin-1-yl]pyrimidine]
6 | 7.30 to 8.00 | Clc1cnc(N2CCC(C3CC3CCOc3ccc(-n4cncn4)cc3)CC2)nc1 (racemic) [Ex 25, rac cis-5-chloro-2-[4-(2-{2-[4-(1H-1,2,4-triazol-1-yl)phenoxy]ethyl}cyclopropyl)piperidin-1-yl]pyrimidine]
7 | 7.30 to 8.00 | Clc1cnc(N2CCC(C3CC3CCOc3ccc(-n4cnnc4)cc3)CC2)nc1 (racemic) [Ex 26, rac cis-5-chloro-2-[4-(2-{2-[4-(4H-1,2,4-triazol-4-yl)phenoxy]ethyl}cyclopropyl)piperidin-1-yl]pyrimidine]
8 | > 8.00 | Clc1cnc(N2CCC(C3CC3CCOc3ccc(-n4ccnn4)cc3)CC2)nc1 (racemic) [Ex 27, rac cis-5-chloro-2-[4-(2-{2-[4-(1H-1,2,3-triazol-1-yl)phenoxy]ethyl}cyclopropyl)piperidin-1-yl]pyrimidine]
9 | 7.30 to 8.00 | Cc1cnc(N2CCC(C3CC3CCOc3ccc(-n4ccnn4)cc3)CC2)nc1 (racemic) [Ex 27c, rac cis-5-methyl-2-[4-(2-{2-[4-(1H-1,2,3-triazol-1-yl)phenoxy]ethyl}cyclopropyl)piperidin-1-yl]pyrimidine]
10 | 6.70 to 7.30 | Clc1cnc(N2CCC(C3CC3CCOc3ccc(-n4nccn4)cc3)CC2)nc1 (racemic) [Ex 28, rac cis-5-chloro-2-[4-(2-{2-[4-(2H-1,2,3-triazol-2-yl)phenoxy]ethyl}cyclopropyl)piperidin-1-yl]pyrimidine]
11 | < 6.70 | Clc1cnc(N2CCC(C3CC3CCOc3ccc(-c4cnn[nH]4)cc3)CC2)nc1 (racemic) [Ex 29, rac cis-5-chloro-2-[4-(2-{2-[4-(1H-1,2,3-triazol-5-yl)phenoxy]ethyl}cyclopropyl)piperidin-1-yl]pyrimidine]
12 | > 8.00 | Clc1cnc(N2CCC(C3CC3CCOc3ccc(-n4cnnn4)cc3)CC2)nc1 (racemic) [Ex 30, rac cis-5-chloro-2-[4-(2-{2-[4-(1H-tetrazol-1-yl)phenoxy]ethyl}cyclopropyl)piperidin-1-yl]pyrimidine]
13 | > 8.00 | Fc1cc(OCCC2CC2C2CCN(c3ncc(Cl)cn3)CC2)ccc1-n1cnnn1 (racemic) [Ex 30b, rac cis-5-chloro-2-[4-(2-{2-[3-fluoro-4-(1H-tetrazol-1-yl)phenoxy]ethyl}cyclopropyl)piperidin-1-yl]pyrimidine]
14 | > 8.00 | Fc1cnc(N2CCC(C3CC3CCOc3ccc(-n4cnnn4)c(F)c3)CC2)nc1 (racemic) [Ex 30d]
15 | > 8.00 | Cc1cnc(N2CCC(C3CC3CCOc3ccc(-n4cnnn4)c(F)c3)CC2)nc1 (racemic) [Ex 30e, rac cis-2-[4-(2-{2-[3-fluoro-4-(1H-tetrazol-1-yl)phenoxy]ethyl)cyclopropyl)piperidin-1-yl]-5-methylpyrimidine]
16 | 7.30 to 8.00 | Clc1cnc(N2CCC(C3CC3CCOc3ccc(-n4ncnn4)cc3)CC2)nc1 (racemic) [Ex 31, rac cis-5-chloro-2-[4-(2-{2-[4-(2H-tetrazol-2-yl)phenoxy]ethyl}cyclopropyl)piperidin-1-yl]pyrimidine]
17 | > 8.00 | Cc1nnn(-c2ccc(OCCC3CC3C3CCN(c4ncc(Cl)cn4)CC3)cc2)n1 (racemic) [Ex 31a, rac cis-5-chloro-2-[4-(2-{2-[4-(5-methyl-2H-tetrazol-2-yl)phenoxy]ethyl}cyclopropyl)piperidin-1-yl]pyrimidine]
18 | 7.30 to 8.00 | Cc1nnnn1-c1ccc(OCCC2CC2C2CCN(c3ncc(Cl)cn3)CC2)cc1 (racemic) [Ex 31b, rac cis-5-chloro-2-[4-(2-{2-[4-(5-methyl-1H-tetrazol-1-yl)phenoxy]ethyl}cyclopropyl)piperidin-1-yl]pyrimidine]
19 | > 8.00 | Cc1nnc(-c2ccc(OCCC3CC3C3CCN(c4ncc(Cl)cn4)CC3)cc2F)o1 (racemic) [Ex 32, rac cis-5-chloro-2-[4-(2-{2-[3-fluoro-4-(5-methyl-1,3,4-oxadiazol-2-yl)phenoxy]ethyl}cyclopropyl)piperidin-1-yl]pyrimidine]
20 | 6.70 to 7.30 | CC(=O)c1ccc(OCC[C@@H]2C[C@@H]2C2CCN(c3ncc(Cl)cn3)CC2)cc1 (racemic) [Ex 35, Rac-cis-1-[4-(2-{2 [1-(5-chloropyrimidin-2-yl)piperidin-4-yl]cyclopropyl}ethoxy)phenyl]ethanone]
21 | > 8.00 | N#Cc1cc(OCC[C@@H]2C[C@@H]2C2CCN(c3ncc(Cl)cn3)CC2)ncn1 (racemic) [Ex 37, Rac-cis-6-(2-{2-[1-(5-chloropyrimidin-2-yl)piperidin-4-yl]cyclopropyl}ethoxy)pyrimidine-4-carbonitrile]
22 | 7.30 to 8.00 | N#Cc1nccc(OCC[C@@H]2C[C@@H]2C2CCN(c3ncc(Cl)cn3)CC2)n1 (racemic) [Ex 38, Rac-cis-4-(2-{2-[1-(5-chloropyrimidin-2-yl)piperidin-4-yl]cyclopropyl}ethoxy)pyrimidine-2-carbonitrile]
23 | > 8.00 | Cc1cnc(N2CCC([C@H]3C[C@H]3CCOc3cc(C#N)nc(C)n3)CC2)nc1 (racemic) [Ex 40, Rac-cis-2-methyl-6-(2-{2-[1-(5-methylpyrimidin-2-yl)piperidin-4-yl]cyclopropyl}ethoxy)pyrimidine-4-carbonitrile]
24 | 7.30 to 8.00 | Cc1cnc(N2CCC([C@H]3C[C@H]3CCOc3cc(C)nc(C)n3)CC2)nc1 (racemic) [Ex 41, Rac-cis-2,4-dimethyl-6-(2-{2-[1-(5-methylpyrimidin-2-yl)piperidin-4-yl]cyclopropyl}ethoxy)pyrimidine]
25 | > 8.00 | Cc1nc(C#N)cc(OCC[C@@H]2C[C@@H]2C2CCN(c3ncc(Cl)c(C)n3)CC2)n1 (racemic) [Ex 42, Rac-cis-6-(2-{2-[1-(5-chloro-4-methylpyrimidin-2-yl)piperidin-4-yl]cyclopropyl}ethoxy)-2-methylpyrimidine-4-carbonitrile]
26 | > 8.00 | Cc1nc(C#N)cc(OCC[C@@H]2C[C@@H]2C2CCN(c3ccc(Cl)cn3)CC2)n1 (racemic) [Ex 43, Rac-cis-6-(2-{2-[1-(5-chloropyridin-2-yl)piperidin-4-yl]cyclopropyl}ethoxy)-2-methylpyrimidine-4-carbonitrile]
27 | 7.30 to 8.00 | Cc1nc(C#N)cc(OCC[C@@H]2C[C@@H]2C2CCN(c3ncc(C)c(C)n3)CC2)n1 (racemic) [Ex 44, Rac-cis-6-(2-{2-[1-(4,5-dimethylpyrimidin-2-yl)piperidin-4-yl]cyclopropyl}ethoxy)-2-methylpyrimidine-4-carbonitrile]
28 | 7.30 to 8.00 | Cc1nc(C#N)cc(OCC[C@@H]2C[C@@H]2C2CCN(c3cc(C)c(Cl)cn3)CC2)n1 (racemic) [Ex 45, Rac-cis-6-(2-{2-[1-(5-chloro-4-methylpyridin-2-yl)piperidin-4-yl]cyclopropyl}ethoxy)-2-methylpyrimidine-4-carbonitrile]
29 | > 8.00 | Cc1nc(C#N)cc(OCC[C@@H]2C[C@@H]2C2CCN(c3ncc(F)c(C)n3)CC2)n1 (racemic) [Ex 46, Rac-cis-6-(2-{2-[1-(5-fluoro-4-methylpyrimidin-2-yl)piperidin-4-yl]cyclopropyl}ethoxy)-2-methylpyrimidine-4-carbonitrile]
30 | > 8.00 | Cc1nc(C#N)cc(OCC[C@@H]2C[C@@H]2C2CCN(c3ccc(C(F)(F)F)cn3)CC2)n1 (racemic) [Ex 47, Rac-cis-2-methyl-6-[2-(2-{1-[5-(trifluoromethyl)pyridin-2-yl]piperidin-4-yl}cyclopropyl)ethoxy]pyrimidine-4-carbonitrile]

— US8343990B2, “Substituted cyclopropyl compounds, compositions containing such compounds and methods of treatment” (Merck Sharp & Dohme Corp., priority 2008, dated 2013)
